Legend:
human TNF-α = human TNF-α (Homo sapiens, UniProt P01375); test: TNF-α thermal melt assay; assay type: binding; design: Amino acids 77-233 of Human TNF-α protein with an N-terminal GST tag; GST (N, cleaved yes); made in house; host or cells: Escherichia coli (BL21 NiCo); details: thermal melt, SYPRO Orange, Kd calculated as in Matulis et al.; read-out: TM Kd
Protocol: Protein was purified using glutathione agarose purification columns (Pierce™, Waltham, MA, USA). Following purification, the GST tag was removed using HRV3c protease (Pierce™, Waltham, MA, USA) and the GST tag and the TNF-α were separated via ion exchange chromatography using a 20 mM HEPES pH 8.0 buffer system ramping from 0 to 1 M NaCl over 12 column volumes with 5 ml of Q Sepharose (HiScreen Q HP, Cytiva™, Marlborough, MA, USA). The final protein includes the amino acids GPLGSG at the N-terminus of the protein.
Protein was heated from 20° C. to 95° C. at one degree per minute in a Roche Opus384 qPCR machine.

[1] = molecular target: T1, native human ASGPR protein (Homo sapiens, UniProt P07306); test: Octet (BLI) binding to ASGPR protein; details: 1:1 binding model
T1 sequence (P07306 1-291): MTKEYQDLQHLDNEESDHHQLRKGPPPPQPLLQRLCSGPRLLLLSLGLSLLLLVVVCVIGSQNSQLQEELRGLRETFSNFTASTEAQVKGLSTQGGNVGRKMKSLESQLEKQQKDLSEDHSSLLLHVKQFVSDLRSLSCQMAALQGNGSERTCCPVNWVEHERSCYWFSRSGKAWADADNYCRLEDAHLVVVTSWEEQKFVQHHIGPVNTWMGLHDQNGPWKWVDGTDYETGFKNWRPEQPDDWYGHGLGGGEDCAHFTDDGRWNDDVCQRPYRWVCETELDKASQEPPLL
Protocol: Protocol. The binding to native human ASGPR protein was measured by Bio-Layer Interferometry (BLI) using the Sartorius Octet 96e platform (Goettingen, Germany). The binding assay was performed using the Ni-NTA (NTA) Dip and Read Biosensors (Sartorius Catalog #18-5101; Goettingen, Germany) in OptiPlate-96F, Black, 96-well, Pinch bar design, plates (Perkin Elmer Catalog #6005270; Waltham, MA, USA) with the following steps: (1) 60 seconds of baseline in Assay Buffer (PBS (Gibco Catalog #10010; Pottstown, PA, USA)+0.05% Tween 20 (v/v) (Fisher BioReagents Catalog BP337-500; Pittsburgh, PA, USA)+0.1% BSA (w/v) (Rockland Catalog #BSA-50; Pottstown, PA, USA) +1 mM CaCl2; Sigma Catalog #21115; Burlington, MA, USA); (2) 600 seconds of loading with 100 nM ASGPR protein; (3) 60 seconds of baseline; (4) 180 seconds of association with a dilution series of ligand consisting of seven concentrations. The eighth tip in the column was run in Assay Buffer to serve as a reference sensor, the signal of which was subtracted from the sample sensors. (5) 180 seconds of dissociation in Assay Buffer.
Results. Data analysis was done using the Octet Data Analysis HT software (Sartorius, Goettingen, Germany). Processed data was globally fit to a 1:1 binding model for determination of the equilibrium dissociation constant (KD).

Chain of human TNF-α (P01375 77-233): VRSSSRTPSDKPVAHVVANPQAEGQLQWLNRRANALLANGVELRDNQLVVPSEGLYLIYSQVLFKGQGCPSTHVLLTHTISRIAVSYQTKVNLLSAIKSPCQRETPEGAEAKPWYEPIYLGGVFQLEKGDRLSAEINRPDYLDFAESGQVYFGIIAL

Row | Structure (SMILES) | Kd (human TNF-α) | Kd [1] | Octet Kd ASGPR [1]
1 | CCC(=O)NC1COC(COCCOCCOCCOCCn2cc(COCC(COCc3cn(CCOCCOCCOCCOCC4OCC(NC(=O)CC)C(O)C4O)nn3)(COCc3cn(CCOCCOCCOCCOCC4OCC(NC(=O)CC)C(O)C4O)nn3)NC(=O)CNC(=O)CCOCCOCCC(=O)N3CCN(Cc4ccc(-c5c[nH]c6ccncc56)c(OCCc5ccc(-c6cccc7ccncc67)cc5)c4)CC3)nn2)C(O)C1O (stereo not shown) [Compound 103] | 1000 nM | 2.13 nM | –
2 | CCC(=O)NC1COC(COCCOCCOCCOCCn2cc(COCC(COCc3cn(CCOCCOCCOCCOCC4OCC(NC(=O)CC)C(O)C4O)nn3)(COCc3cn(CCOCCOCCOCCOCC4OCC(NC(=O)CC)C(O)C4O)nn3)NC(=O)CNC(=O)CCC(=O)N3CCN(Cc4ccc(-c5c[nH]c6ccncc56)c(OCCc5ccc(-c6cccc7ccncc67)cc5)c4)CC3)nn2)C(O)C1O (stereo not shown) [Compound 104] | 1000 nM | 1 nM | –
3 | CCC(=O)NC1COC(COCCOCCOCCOCCn2cc(COCCNC(=O)CNC(=O)CCOCCOCCOCCOCCOCCOCCC(=O)N3CCN(Cc4ccc(-c5c[nH]c6ccncc56)c(OCCc5ccc(-c6cccc7ccncc67)cc5)c4)CC3)nn2)C(O)C1O (stereo not shown) [Compound 105] | 65 nM | – | weak

Second part, the compound after the results:

Row | Kd (human TNF-α) | Kd [1] | Octet Kd ASGPR [1] | Structure (SMILES)
4 | 50 nM | > 1000 nM | – | CCC(=O)N[C@H]1CO[C@H](COCCOCCOCCOCCn2cc(COCCNC(=O)CNC(=O)CCC(=O)N3CCN(Cc4ccc(-c5c[nH]c6ccncc56)c(OCCc5ccc(-c6cccc7ccncc67)cc5)c4)CC3)nn2)[C@H](O)[C@@H]1O [Compound 106]
5 | 55 nM | 963 nM | – | CCC(=O)N[C@H]1CO[C@H](COCCOCCOCCOCCn2cc(COCCNC(=O)CNC(=O)CCOCCOCCC(=O)N3CCN(Cc4ccc(-c5c[nH]c6ccncc56)c(OCCc5ccc(-c6cccc7ccncc67)cc5)c4)CC3)nn2)[C@H](O)[C@@H]1O [Compound 107]

Reference: patent US20260256921A1, “BIFUNCTIONAL MOLECULES TO TARGET DEGRADATION OF TUMOR NECROSIS FACTOR” (Biohaven Therapeutics Ltd., priority 2023, published 2026)
